Data reported in US8802895B2, “Amide derivatives of benzene-sulfonanilide, pharmaceutical composition thereof and method for cancer treatment using the same” (Cleveland State University, priority 2010, dated 2014).

What was measured:
Format in all cases: cell-based
MDA-MB-468 = assay: NCIDTP 60 cancer cell lines screening, Breast Cancer panel
RPMI-8226 = assay: NCIDTP 60 cancer cell lines screening, Leukemia panel
DU-145 = assay: NCIDTP 60 cancer cell lines screening, Prostate Cancer panel
NCI-H322M = assay: NCIDTP 60 cancer cell lines screening, Non-Small Cell Lung Cancer panel
HS 578T = assay: NCIDTP 60 cancer cell lines screening, Breast Cancer panel
ACHN = assay: NCIDTP 60 cancer cell lines screening, Renal Cancer panel
HOP-62 = assay: NCIDTP 60 cancer cell lines screening, Non-Small Cell Lung Cancer panel
SK-OV-3 = assay: NCIDTP 60 cancer cell lines screening, Ovarian Cancer panel
OVCAR-3 = assay: as above
MOLT-4 = assay: NCIDTP 60 cancer cell lines screening, Leukemia panel
A549/ATCC = assay: NCIDTP 60 cancer cell lines screening, Non-Small Cell Lung Cancer panel

Cc1ccc(C)c(COc2cc(NC(=O)c3ccc4c(c3)OCO4)ccc2N(C)S(C)(=O)=O)c1 [Compound #10, Benzo[1,3]dioxole-5-carboxylic acid [3-(2,5-dimethyl-benzyloxy)-4-(methanesulfonyl-methyl-amino)-phenyl]-amide]
GI50 (MDA-MB-468; Homo sapiens, MDA-MB-468): 0.155 µM
CC50 (MDA-MB-468; Homo sapiens, MDA-MB-468, read-out: LC50): 19.9 µM
TGI (MDA-MB-468; MDA-MB-468): 4.01E−7 Molar
Percent Growth (MDA-MB-468; MDA-MB-468, Log10 Concentration −4.0 Molar): −56%
Percent Growth (MDA-MB-468; MDA-MB-468, Log10 Concentration −5.0 Molar): −47%
Percent Growth (MDA-MB-468; MDA-MB-468, Log10 Concentration −6.0 Molar): −48%
Percent Growth (MDA-MB-468; MDA-MB-468, Log10 Concentration −7.0 Molar): 73%
Percent Growth (MDA-MB-468; MDA-MB-468, Log10 Concentration −8.0 Molar): 85%
GI50 (RPMI-8226; Homo sapiens, RPMI-8226): 0.29 µM
CC50 (RPMI-8226; Homo sapiens, RPMI-8226, read-out: LC50): > 100 µM
Percent Growth (RPMI-8226; RPMI-8226, Log10 Concentration −4.0 Molar): 6%
Percent Growth (RPMI-8226; RPMI-8226, Log10 Concentration −5.0 Molar): −2%
Percent Growth (RPMI-8226; RPMI-8226, Log10 Concentration −6.0 Molar): 14%
Percent Growth (RPMI-8226; RPMI-8226, Log10 Concentration −7.0 Molar): 81%
Percent Growth (RPMI-8226; RPMI-8226, Log10 Concentration −8.0 Molar): 93%
TGI (DU-145; DU-145): 4.57E−7 Molar
Percent Growth (DU-145; DU-145, Log10 Concentration −4.0 Molar): −28%
Percent Growth (DU-145; DU-145, Log10 Concentration −5.0 Molar): −39%
Percent Growth (DU-145; DU-145, Log10 Concentration −6.0 Molar): −37%
Percent Growth (DU-145; DU-145, Log10 Concentration −7.0 Molar): 72%
Percent Growth (DU-145; DU-145, Log10 Concentration −8.0 Molar): 96%
GI50 (DU-145; Homo sapiens, DU-145): 0.159 µM
CC50 (DU-145; Homo sapiens, DU-145, read-out: LC50): > 100 µM
TGI (NCI-H322M): >1.00E−4 Molar
GI50 (NCI-H322M; Homo sapiens): 0.468 µM
CC50 (NCI-H322M; Homo sapiens, read-out: LC50): > 100 µM
Percent Growth (NCI-H322M; Log10 Concentration −4.0 Molar): 28%
Percent Growth (NCI-H322M; Log10 Concentration −5.0 Molar): 26%
Percent Growth (NCI-H322M; Log10 Concentration −6.0 Molar): 30%
Percent Growth (NCI-H322M; Log10 Concentration −7.0 Molar): 91%
Percent Growth (NCI-H322M; Log10 Concentration −8.0 Molar): 94%
Percent Growth (HS 578T; HS 578T, Log10 Concentration −4.0 Molar): 3%
Percent Growth (HS 578T; HS 578T, Log10 Concentration −5.0 Molar): −9%
Percent Growth (HS 578T; HS 578T, Log10 Concentration −6.0 Molar): −5%
Percent Growth (HS 578T; HS 578T, Log10 Concentration −7.0 Molar): 47%
Percent Growth (HS 578T; HS 578T, Log10 Concentration −8.0 Molar): 90%
CC50 (HS 578T; Homo sapiens, Hs-578T, read-out: LC50): > 100 µM
GI50 (HS 578T; Homo sapiens, HS 578T): 0.087 µM
TGI (ACHN): >1.00E−4 Molar
GI50 (ACHN; Homo sapiens): 0.687 µM
CC50 (ACHN; Homo sapiens, read-out: LC50): > 100 µM
Percent Growth (ACHN; Log10 Concentration −4.0 Molar): 23%
Percent Growth (ACHN; Log10 Concentration −5.0 Molar): 26%
Percent Growth (ACHN; Log10 Concentration −6.0 Molar): 45%
Percent Growth (ACHN; Log10 Concentration −7.0 Molar): 75%
Percent Growth (ACHN; Log10 Concentration −8.0 Molar): 95%
TGI (HOP-62; HOP-62): >1.00E−4 Molar
Percent Growth (HOP-62; HOP-62, Log10 Concentration −4.0 Molar): 19%
Percent Growth (HOP-62; HOP-62, Log10 Concentration −5.0 Molar): 18%
Percent Growth (HOP-62; HOP-62, Log10 Concentration −6.0 Molar): 18%
Percent Growth (HOP-62; HOP-62, Log10 Concentration −7.0 Molar): 84%
Percent Growth (HOP-62; HOP-62, Log10 Concentration −8.0 Molar): 102%
GI50 (HOP-62; Homo sapiens, HOP-62): 0.329 µM
CC50 (HOP-62; Homo sapiens, HOP-62, read-out: LC50): > 100 µM
GI50 (SK-OV-3; Homo sapiens, SK-OV-3): 0.285 µM
CC50 (SK-OV-3; Homo sapiens, SK-OV-3, read-out: LC50): > 100 µM
TGI (SK-OV-3; SK-OV-3): >1.00E−4 Molar
Percent Growth (SK-OV-3; SK-OV-3, Log10 Concentration −4.0 Molar): 5%
Percent Growth (SK-OV-3; SK-OV-3, Log10 Concentration −5.0 Molar): 5%
Percent Growth (SK-OV-3; SK-OV-3, Log10 Concentration −6.0 Molar): 8%
Percent Growth (SK-OV-3; SK-OV-3, Log10 Concentration −7.0 Molar): 85%
Percent Growth (SK-OV-3; SK-OV-3, Log10 Concentration −8.0 Molar): 99%
TGI (OVCAR-3): 1.66E−7 Molar
GI50 (OVCAR-3; Homo sapiens): 0.0396 µM
Percent Growth (OVCAR-3; Log10 Concentration −4.0 Molar): −32%
Percent Growth (OVCAR-3; Log10 Concentration −5.0 Molar): −44%
Percent Growth (OVCAR-3; Log10 Concentration −6.0 Molar): −67%
Percent Growth (OVCAR-3; Log10 Concentration −7.0 Molar): 19%
Percent Growth (OVCAR-3; Log10 Concentration −8.0 Molar): 96%
GI50 (MOLT-4; Homo sapiens, MOLT-4): 0.163 µM
CC50 (MOLT-4; Homo sapiens, MOLT-4, read-out: LC50): > 100 µM
TGI (MOLT-4; MOLT-4): >1.00E−4 Molar
Percent Growth (MOLT-4; MOLT-4, Log10 Concentration −4.0 Molar): 13%
Percent Growth (MOLT-4; MOLT-4, Log10 Concentration −5.0 Molar): 7%
Percent Growth (MOLT-4; MOLT-4, Log10 Concentration −6.0 Molar): 12%
Percent Growth (MOLT-4; MOLT-4, Log10 Concentration −7.0 Molar): 80%
Percent Growth (MOLT-4; MOLT-4, Log10 Concentration −8.0 Molar): 99%
TGI (A549/ATCC; A549/ATCC): 1.36E−5 Molar
Percent Growth (A549/ATCC; A549/ATCC, Log10 Concentration −4.0 Molar): −29%
Percent Growth (A549/ATCC; A549/ATCC, Log10 Concentration −5.0 Molar): 5%
Percent Growth (A549/ATCC; A549/ATCC, Log10 Concentration −6.0 Molar): 12%
Percent Growth (A549/ATCC; A549/ATCC, Log10 Concentration −7.0 Molar): 80%
Percent Growth (A549/ATCC; A549/ATCC, Log10 Concentration −8.0 Molar): 97%
CC50 (A549/ATCC; Homo sapiens, A549, read-out: LC50): > 100 µM
GI50 (A549/ATCC; Homo sapiens, A549/ATCC): 0.278 µM
